In US11219628B2, “Replacement of cytotoxic preconditioning before cellular immunotherapy” (priority 2017, dated 2022):
“Also recorded” adds a separate entry of the source. Where two headings read alike, the source gives them in different places.

Columns and labels:
RBC = conditions: doses of about 24 mg/50 kg; cited from earlier work
MOPC315 cells [1] = assay: Immunocompetent mouse model of multiple myeloma: preconditioning before alloHSCT or NK cells; conditions: preconditioning before alloHSCT
Description: (§1) The mouse multiple myeloma MOPC315 cell line available from ATCC is tail vein inoculated to immunocompetent Balbc mice at 2×10^6 cells.
(§2) Balb/cJ (H-2d) and B10.D2 (H-2d) mice were purchased from Jackson Laboratory (Bar Harbor, Me., USA). Mice were used when they were between 10- to 14-wk-old. […] Red blood cells are lysed using sterile filtered RBC lysis buffer (eBioscience, San Diego, USA) and cells are washed, resuspended in phosphate buffered saline (PBS) containing 3% FBS, and filtered through a 70 mM nylon membrane. For CD8 T-cell depletion, the “Mouse CD8a positive selection kit” (Stem Cell, Grenoble, France) are used according to the manufacturer's EASYSEP depletion protocol. Finally, cells are suspended in 200 ml PBS for i.v. injection. Balbc mice are transplanted by i.v. tail vein injection of 1×10^7 bone marrow cells and 7×10^7 splenocytes from donor B10.D2 mice between 10 and 30 days after MOPC315 inoculation.
(§3) For allogeneic NK cell administration, fully functional NK cells are isolated from donor B10.D2 mice using commercially available kits such as the one from Miltenyi. Alternatively, mouse NK cells can be purchased from ATCC (KIL cells). The NK Cell Isolation Kit was developed for the isolation of untouched NK cells from single-cell suspensions of murine spleen. Non-NK cells, i.e. T cells, dendritic cells, B cells, granulocytes, macrophages, and erythroid cells are magnetically labeled by using a cocktail of biotin-conjugated antibodies and Anti-Biotin MicroBeads. Isolation of highly pure unlabeled NK cells is achieved by depletion of non-target cells. The kit has been optimized to give outstanding purities in C57BL/6J mice. 1×10^7 isolated NK cells are transplanted by IV tail vein injection between 10 and 30 days after MOPC315 inoculation.

[2] = test system: germinal centers in spleen; assay: Mouse spleen germinal centers by FITC-PNA immunofluorescence
[3] = test system: peripheral blood T and B cells, germinal centers and marginal zones, plasma IL-2 and IL-15; assay: Summary statements: acute dexamethasone doses needed for in vivo NTLA effects
Description: The effects of glucocorticoids are complex and depend on each specific glucocorticoid's affinity for the GR and mineralocorticoid receptor (MR). Additionally, there are now 9 known isoforms of the cytosolic GR and additional membrane expressed GR receptors that have been identified but which are not fully characterized. […] In general, at low doses typically used for chronic therapy, glucocorticoids have been reported to redistribute lymphocytes from the peripheral blood into the bone marrow, at medium doses glucocorticoids have been reported to cause leukocytosis thought to be a redistribution of leukocytes from the bone marrow, spleen and thymus into the peripheral blood, and at high doses glucocorticoids have a lymphotoxic action on lymphocytes by triggering apoptosis and necroptosis.

[4] = test system: blood lymphocytes, neutrophils, RBCs, platelets; assay: Rat complete blood counts 48 hours after acute dexamethasone; conditions: IV or PO 20, 40 or 80 mg/kg; for neutrophil number: all doses
[5] = test system: blood lymphocyte populations, neutrophils, RBCs, platelets; assay: Mouse CBC and flow cytometry 48 hours after oral acute dexamethasone; conditions: oral HED 3, 6, 9 or 12 mg/kg
Description: Treg lymphocytes were identified by being CD3+CD4+CD25+FoxP3+.
NK cells were identified by being CD3−CD49b+. B lymphocytes were identified by being CD3−B220+.

neutrophil function = conditions: cited from earlier work
MOPC315 cells [6] = conditions: mouse, in vivo
Description: as §1, §2, §3

[7] = cited from earlier work
IL-2, IL-15, IL-6 = type: in vivo, human; conditions: oral 3 mg/kg dexamethasone base; 48 hours
Experimental: (FIG. 12, FIG. 13, FIG. 14 and FIG. 15 show data from the same four human patients.)
Blood was drawn before drug treatment and 48 hours post-treatment for CBC analysis and flow cytometry to determine lymphocyte and other blood cell populations. Serum was analyzed for cytokine levels. For one patient, pre-treatment CBCs were not drawn and thus normalized flow cytometry data is shown for only 3 patients.

[8] = test system: blood lymphocyte populations, HSCs
Description: Each patients pre-treatment values are connected to post-treatment values by a connecting line. CD4+ cells are also CD3+. CD8+ cells are also CD3+.
Each patient's pre-treatment values are connected to post-treatment values by a connecting line. Tregs are identified by being CD3+CD4+CD25+FoxP3+. B lymphocytes are identified by being CD3-CD19+.
Each patient's pre-treatment values are connected to post-treatment values by a connecting line. NK cells are identified by being CD3-CD16/56+. HSCs are identified by being CD34+CD38-.
Blood was drawn before drug treatment and 48 hours post-treatment for CBC analysis and flow cytometry to determine lymphocyte and other blood cell populations. […] For one patient, pre-treatment CBCs were not drawn and thus normalized flow cytometry data is shown for only 3 patients.

[9] = test system: peripheral blood lymphocytes; assay: Repeat of Hinrichs dexamethasone dosing: peripheral blood lymphocytes by flow cytometry; type: in vivo; parameters: CD3+CD4+CD25+FoxP3+ Tregs reduction / CD3+ T lymphocytes reduction / CD3+CD4+ T lymphocytes reduction / CD3+CD8_T lymphocytes reduction: concentration or dose not given beside the values
Description: Prior studies into the use of steroids to precondition a patient prior to ACT had shown this approach to be ineffective. […] In contrast, Hinrichs discloses that pretreatment with radiation did enhance ACT tumor killing. […] However, while Hinrichs reported 99% lymphodepletion, no enhancement of ACT tumor killing was observed. In contrast, Hinrichs observed that radiation does enhance ACT tumor killing. […] In contrast, CD3+ T lymphocytes were reduced from […] live events, only a non-significant […] reduction. CD3+CD4+ T lymphocytes were reduced from 1779 to 902 live events, only a non-significant 50% reduction. CD3+CD8_T lymphocytes were reduced from 1318 to 1277 live events, only a non-significant 3% reduction. CD3+CD4+CD25+FoxP3+ Tregs were reduced from 198 to 70 live events, only a non-significant 65% reduction. And natural killer (NK) cells were reduced from 1153 to 958 live events, only a non-significant 17% reduction.

[10] = test system: multiple myeloma and other cancer cell lines; assay: Direct tumor killing by acute dexamethasone; type: in vivo; conditions: about 1.6 mg/kg HED in a 48 hour period
Description: The desired in vivo effects of exemplary NTLAs would include reductions in germinal center and marginal zones in secondary lymphatics, direct tumor killing of some cancers particularly; multiple myeloma, renal cell carcinoma, leukemia and lymphoma, non-small cell lung cancer (NSCLC), prostate and breast cancer; depletion of all peripheral blood lymphocyte types, lack of lymphocyte redistribution to the BM or other organs, and elevation of plasma cytokines including IL-2, and/or IL-7, and/or IL-12, and/or IL-15 to levels preferably of 20 pg/ml or greater, among others.

[11] = cited from earlier work; remark: listed apart in the source
[12] = test system: spleen weights, germinal centers; conditions: po daily for 13 weeks, mice; cited from earlier work
germinal centers = conditions: 1 to 4 weeks of daily dosing; up to about 10 mgs/kg/day; cited from earlier work
Tregs = conditions: in vivo; cited from earlier work
[13] = Hinrichs dosing, non-significant

C[C@H]1C[C@H]2[C@@H]3CCC4=CC(=O)C=C[C@]4(C)[C@@]3(F)[C@@H](O)C[C@]2(C)[C@@]1(O)C(=O)CO [Betamethasone]
effect on RBC (RBC): reduces RBC

C[C@@H]1C[C@H]2[C@@H]3CCC4=CC(=O)C=C[C@]4(C)[C@@]3(F)[C@@H](O)C[C@]2(C)[C@@]1(O)C(=O)CO [Dexamethasone, dexamethasone]
body weights after preconditioning (in words) (MOPC315 cells [1]): not reduced | HED at which germinal centers are reduced in mice [2]: ≥ 3 mg/kg HED | acute oral dose necessary to reduce peripheral blood T and B cells ([3]; 48 hours after administration): ≥ 3 mg/kg | return to baseline levels of peripheral blood T and B cells ([3]; acute oral doses of 3 mg/kg or greater): 5 to 14 days after dosing | acute dose required for lymphodepletion ([3]; in vivo): > 3 mg/kg HED | acute dose that reduces germinal centers and marginal zones in secondary lymphatics ([3]; in vivo): ≥ 6 mg/kg HED | dose of dexamethasone base at which plasma IL-2 and IL-15 cytokine elevations are observed ([3]; in vivo): ≥ 3 mg/kg HED | Hct [4]: not affected | HgB [4]: not affected | RBCs [4]: not affected | platelets [4]: not affected | neutrophil number [4]: not reduced; also recorded: increased by all doses | neutrophil number ([4]; listed as Dex): does not reduce | RBCs [5]: spared | neutrophils [5]: spared | platelets [5]: spared | B lymphocytes reduction compared to placebo ([5]; dose for the value not stated): 83% | CD3+ T lymphocytes reduction compared to placebo ([5]; dose for the value not stated): 65% | CD4+ T lymphocytes reduction compared to placebo ([5]; dose for the value not stated): 75% | CD8+ T lymphocytes reduction compared to placebo ([5]; dose for the value not stated): 56% | Tregs reduction compared to placebo ([5]; dose for the value not stated): 78% | absolute lymphocyte count reduction compared to placebo ([5]; dose for the value not stated): 84% | natural killer cells (NK) reduction compared to placebo ([5]; dose for the value not stated): 87% | RBCs ([5]; listed as Dex): spares | neutrophils ([5]; listed as Dex): sparing | platelets ([5]; listed as Dex): spares | neutrophil function (neutrophil function): do not inhibit neutrophil function | toxicity compared to standard CyFlu preconditioning (MOPC315 cells [6]): much less toxicity | toxicity compared to standard repeat CyFlu preconditioning (MOPC315 cells [6]): less toxicity | lowest lethal dose ([7]; healthy mice): 114 mg/kg HED | lowest lethal dose ([7]; tumor bearing mice): 43 mg/kg HED | patients with increased serum IL-2 and/or IL-15 levels (IL-2, IL-15, IL-6): 100% | patients showing lymphocytosis ([8]; 3 mg/kg HED): 50% | hematopoietic stem cells (CD34+CD38-) ([8]; human, in vivo, po, 3 mg/kg): spared | CD3+ T lymphocytes reduction [9, 13]: 33% | CD3+CD4+ T lymphocytes reduction [9, 13]: 50% | CD3+CD4+CD25+FoxP3+ Tregs reduction [9, 13]: 65% | CD3+CD8_T lymphocytes reduction [9, 13]: 3% | natural killer (NK) cells reduction [9, 13]: 17% | CD3+CD4+CD25+FoxP3+ Tregs, live events ([9]; Hinrichs dosing, reduced from 198): 70 live events | natural killer (NK) cells, live events ([9]; Hinrichs dosing, reduced from 1153): 958 live events | CD3+CD8_T lymphocytes, live events ([9]; Hinrichs dosing, reduced from 1318): 1277 live events | CD3+CD4+ T lymphocytes, live events ([9]; Hinrichs dosing, reduced from 1779): 902 live events | CD3+ T lymphocytes, live events ([9]; intraperitoneal 10 mg/kg (HED 0.81 mg/kg) on day −6, −4, −2, reduced from 3370): 2441 live events | B lymphocytes reduction vs vehicle control ([9]; intraperitoneal 10 mg/kg (HED 0.81 mg/kg) on day −6, −4, −2, significant): 65% | B lymphocytes (CD3-CD19+ cells) in the peripheral blood, live events by flow cytometry ([9]; intraperitoneal 10 mg/kg (HED 0.81 mg/kg) on day −6, −4, −2, vehicle control 10680): 3733 live events | direct tumor killing [10]: about 50%

C[C@]12C=CC(=O)C=C1CC[C@@H]1[C@@H]2C(=O)C[C@@]2(C)[C@H]1CC[C@]2(O)C(=O)CO [Prednisone]
biologic half-life [11]: about 20 hours | dose above which germinal centers are significantly impacted [12]: over 2.5 mg/kg | dose above which spleen weights are significantly impacted [12]: over 2.5 mg/kg

C=CC[C@@H]1/C=C(\C)C[C@H](C)C[C@H](OC)[C@H]2O[C@@](O)(C(=O)C(=O)N3CCCC[C@H]3C(=O)O[C@H](/C(C)=C/[C@@H]3CC[C@@H](O)[C@H](OC)C3)[C@H](C)[C@@H](O)CC1=O)[C@H](C)C[C@@H]2OC [Tacrolimus]
daily dosing required to reduce germinal centers (germinal centers): ≥ 0.48 mg/kg/day | neutrophil function (neutrophil function): inhibits neutrophil function

methylprednisone
effect on Tregs (Tregs): increases Tregs
